The values that follow come from patent US9579314B2 (priority 2015, dated 2017).

One test addresses Human M3 receptor (Homo sapiens, UniProt P20309). As to conditions: read-out: M3 binding affinity.
Another test deals with Human β2 adrenoceptor (Homo sapiens, UniProt P07550). The conditions noted are these: read-out: B2 binding affinity.

Molecules are shown by their SMILES.

Human β2 adrenoceptor, sequence (P07550 whole entry): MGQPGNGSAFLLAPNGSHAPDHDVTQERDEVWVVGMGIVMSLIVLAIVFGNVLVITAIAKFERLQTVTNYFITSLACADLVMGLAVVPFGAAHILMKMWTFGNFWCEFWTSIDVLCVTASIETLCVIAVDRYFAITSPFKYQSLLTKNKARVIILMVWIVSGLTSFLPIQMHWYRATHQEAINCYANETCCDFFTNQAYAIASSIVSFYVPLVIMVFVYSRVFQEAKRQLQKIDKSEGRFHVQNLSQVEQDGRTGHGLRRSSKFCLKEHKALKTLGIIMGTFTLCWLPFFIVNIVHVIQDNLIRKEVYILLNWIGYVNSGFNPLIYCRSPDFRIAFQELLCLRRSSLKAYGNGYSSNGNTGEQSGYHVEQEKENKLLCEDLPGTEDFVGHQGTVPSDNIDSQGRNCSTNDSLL
Human M3 receptor, sequence (P20309 whole entry): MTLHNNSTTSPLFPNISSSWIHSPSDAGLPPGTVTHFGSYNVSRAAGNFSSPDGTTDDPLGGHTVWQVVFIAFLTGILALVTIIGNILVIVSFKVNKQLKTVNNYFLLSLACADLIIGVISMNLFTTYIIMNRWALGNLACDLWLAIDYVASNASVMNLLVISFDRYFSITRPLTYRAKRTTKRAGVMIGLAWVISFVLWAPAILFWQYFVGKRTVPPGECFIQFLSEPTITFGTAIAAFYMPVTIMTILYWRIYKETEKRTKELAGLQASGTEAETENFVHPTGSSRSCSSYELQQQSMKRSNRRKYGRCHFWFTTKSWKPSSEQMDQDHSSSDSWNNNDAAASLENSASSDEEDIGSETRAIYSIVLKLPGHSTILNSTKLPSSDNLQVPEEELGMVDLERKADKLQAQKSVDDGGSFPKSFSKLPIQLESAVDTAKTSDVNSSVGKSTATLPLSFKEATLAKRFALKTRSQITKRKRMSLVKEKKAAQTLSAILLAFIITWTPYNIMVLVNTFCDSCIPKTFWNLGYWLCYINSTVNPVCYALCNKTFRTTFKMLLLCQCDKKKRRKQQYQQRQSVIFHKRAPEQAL

With `O=C(COc1cccc([C@](O)(C(=O)OCC2CCN(Cc3ccccc3)CC2)c2ccccc2)c1)N[C@H]1C[C@H](NC(=O)c2ccc(CNC[C@H](O)c3ccc(O)c4[nH]c(=O)ccc34)c(O)c2)C1` [Compound 127, (1-Benzylpiperidin-4-yl)methyl (S)-2-hydroxy-2-(3-(2-(((1R,3S)-3-(3-hydroxy-4-((((R)-2-hydroxy-2-(8-hydroxy-2-oxo-1,2-dihydroquinolin-5-yl)ethyl)amino)methyl)-benzamido)cyclobutyl)amino)-2-oxoethoxy)phenyl)-2-phenylacetate], the IC50 on Human M3 receptor and at Human β2 adrenoceptor was below 0.3 nM throughout.
Regarding `O=C(NCC(=O)N1CCC(COc2cccc([C@](O)(C(=O)OCC3CCN(Cc4ccccc4)CC3)c3ccccc3)c2)CC1)c1ccc(CNC[C@H](O)c2ccc(O)c3[nH]c(=O)ccc23)cc1` [Compound 154, (1-benzylpiperidin-4-yl)methyl (S)-2-hydroxy-2-(3-((1-((4-((((R)-2-hydroxy-2-(8-hydroxy-2-oxo-1,2-dihydroquinolin-5-yl)ethyl)amino)methyl)benzoyl)glycyl)piperidin-4-yl)methoxy)phenyl)-2-phenylacetate], the IC50 at Human M3 receptor and on Human β2 adrenoceptor was below 0.3 nM each time.
For the compound `O=C(NCCCOc1cccc([C@](O)(C(=O)OCC2CCN(Cc3ccccc3)CC2)c2ccccc2)c1)c1ccc(CNC[C@H](O)c2ccc(O)c3[nH]c(=O)ccc23)cc1` [Compound 32, (S)-(1-benzylpiperidin-4-yl)methyl 2-hydroxy-2-(3-(3-(4-((((R)-2-hydroxy-2-(8-hydroxy-2-oxo-1,2-dihydroquinolin-5-yl)ethyl)amino)methyl)benzamido)propoxy)phenyl)-2-phenylacetate], the IC50 is 0.3 to 3 nM at Human M3 receptor and below 0.3 nM at Human β2 adrenoceptor.
Taken in the same sequence, the figures for `O=C(COc1cccc([C@](O)(C(=O)OCC2CCN(Cc3ccccc3)CC2)c2ccccc2)c1)N1CCOC2(CCN(C(=O)c3ccc(CCNC[C@H](O)c4ccc(O)c5[nH]c(=O)ccc45)cc3)CC2)C1` [Compound 100, (1-benzylpiperidin-4-yl)methyl (S)-2-hydroxy-2-(3-(2-(9-(4-(2-(((R)-2-hydroxy-2-(8-hydroxy-2-oxo-1,2-dihydroquinolin-5-yl)ethyl)amino)ethyl)benzoyl)-1-oxa-4,9-diazaspiro[5.5]undecan-4-yl)-2-oxoethoxy)phenyl)-2-phenylacetate] were below 0.3 nM and 0.3 to 3 nM.
Take `O=C(COc1cccc([C@](O)(C(=O)OCC2CCN(Cc3ccccc3)CC2)c2ccccc2)c1)N1CCN(C(=O)c2ccc(CCNC[C@H](O)c3ccc(O)c4[nH]c(=O)ccc34)cc2)CC1` [Compound 86, (1-benzylpiperidin-4-yl)methyl (S)-2-hydroxy-2-(3-(2-(4-(4-(2-(((R)-2-hydroxy-2-(8-hydroxy-2-oxo-1,2-dihydroquinolin-5-yl)ethyl)amino)ethyl)benzoyl)piperazin-1-yl)-2-oxoethoxy)phenyl)-2-phenylacetate]: the IC50 on Human M3 receptor was 0.3 to 3 nM; on Human β2 adrenoceptor it was below 0.3 nM.
Regarding `O=C(c1ccc(CCNC[C@H](O)c2ccc(O)c3[nH]c(=O)ccc23)cc1)N1CCC(COc2cccc([C@](O)(C(=O)OCC3CCN(Cc4ccccc4)CC3)c3ccccc3)c2)CC1` [Compound 31, (S)-(1-Benzylpiperidin-4-yl)methyl 2-hydroxy-2-(3-((1-(4-(2-(((R)-2-hydroxy-2-(8-hydroxy-2-oxo-1,2-dihydroquinolin-5-yl)ethyl)amino)ethyl)benzoyl)piperidin-4-yl)methoxy)phenyl)-2-phenylacetate], the IC50 at Human M3 receptor and at Human β2 adrenoceptor was below 0.3 nM throughout.
For `O=C(NCC(=O)N1CCC(COc2cccc([C@](O)(C(=O)OCC3CCN(Cc4ccccc4)CC3)c3ccccc3)c2)CC1)c1ccc(CCNC[C@H](O)c2ccc(O)c3[nH]c(=O)ccc23)cc1` [Compound 152, (1-benzylpiperidin-4-yl)methyl (S)-2-hydroxy-2-(3-((1-((4-(2-(((R)-2-hydroxy-2-(8-hydroxy-2-oxo-1,2-dihydroquinolin-5-yl)ethyl)amino)ethyl)benzoyl)glycyl)piperidin-4-yl)methoxy)phenyl)-2-phenylacetate], the IC50 was below 0.3 nM on Human M3 receptor and 0.3 to 3 nM at Human β2 adrenoceptor.
The corresponding values for `O=C1C=Cc2c([C@@H](O)CNCCC3CCN(C(=O)c4ccc(COc5cccc([C@](O)(C(=O)OCC6CCN(Cc7ccccc7)CC6)c6ccccc6)c5)cc4)CC3)ccc(O)c2C1` [Compound 33A, (1-benzylpiperidin-4-yl)methyl (S)-2-hydroxy-2-(3-((4-(4-(2-(((R)-2-hydroxy-2-(4-hydroxy-6-oxo-5,6-dihydronaphthalen-1-yl)ethyl)amino)ethyl)piperidine-1-carbonyl)benzyl)oxy)phenyl)-2-phenylacetate] are 0.3 to 3 nM and below 0.3 nM.
The corresponding values for `O=C(NCCCOc1cccc([C@](O)(C(=O)OCC2CCN(Cc3ccccc3)CC2)c2ccccc2)c1)c1ccc(CNC[C@H](O)c2ccc(O)c3[nH]c(=O)ccc23)nc1` [Compound 32C, (S)-(1-benzylpiperidin-4-yl)methyl 2-hydroxy-2-(3-(3-(6-((((R)-2-hydroxy-2-(8-hydroxy-2-oxo-1,2-dihydroquinolin-5-yl)ethyl)amino)methyl)nicotinamido)propoxy)phenyl)-2-phenylacetate] are 0.3 to 3 nM and below 0.3 nM.
For `O=C(OCC1CCN(Cc2ccccc2)CC1)C(O)(c1ccccc1)c1ccc(OCCCCCNC[C@H](O)c2ccc(O)c3[nH]c(=O)ccc23)cc1` (stereo partly drawn) [Compound 51, (1-benzylpiperidin-4-yl)methyl 2-hydroxy-2-(4-((5-(((R)-2-hydroxy-2-(8-hydroxy-2-oxo-1,2-dihydroquinolin-5-yl)ethyl)amino)pentyl)oxy)phenyl)-2-phenylacetate diformate], the IC50 on Human M3 receptor is 0.3 to 3 nM; on Human β2 adrenoceptor, below 0.3 nM.
Taken in the same sequence, the figures for `COc1cc(CNC[C@H](O)c2ccc(O)c3[nH]c(=O)ccc23)ccc1C(=O)N[C@H]1C[C@H](NC(=O)COc2cccc([C@](O)(C(=O)OCC3CCN(Cc4ccccc4)CC3)c3ccccc3)c2)C1` [Compound 130, (S)-(1-benzylpiperidin-4-yl)methyl 2-hydroxy-2-(3-(2-(((1R,3S)-3-(4-((((R)-2-hydroxy-2-(8-hydroxy-2-oxo-1,2-dihydroquinolin-5-yl)ethyl)amino)methyl)-2-methoxybenzamido)cyclobutyl)amino)-2-oxoethoxy)phenyl)-2-phenylacetate] were 0.3 to 3 nM and 0.3 to 3 nM.
Taken in the same sequence, the figures for `COc1cc(C(=O)N[C@H]2C[C@H](NC(=O)COc3cccc([C@](O)(C(=O)OCC4CCN(Cc5ccccc5)CC4)c4ccccc4)c3)C2)c(Cl)cc1CNC[C@H](O)c1ccc(O)c2[nH]c(=O)ccc12` [Compound 137, (1-benzylpiperidin-4-yl)methyl (S)-2-(3-(2-(((1R,3S)-3-(2-chloro-4-((((R)-2-hydroxy-2-(8-hydroxy-2-oxo-1,2-dihydroquinolin-5-yl)ethyl)amino)methyl)-5-methoxybenzamido)cyclobutyl)amino)-2-oxoethoxy)phenyl)-2-hydroxy-2-phenylacetate] were 0.3 to 3 nM and below 0.3 nM.
The corresponding values for `O=C(COc1cccc([C@](O)(C(=O)OCC2CCN(Cc3ccccc3)CC2)c2ccccc2)c1)N1C[C@H]2CCN(C(=O)c3ccc(CCNC[C@H](O)c4ccc(O)c5[nH]c(=O)ccc45)cc3)[C@H]2C1` [Compound 111, (1-benzylpiperidin-4-yl)methyl (S)-2-hydroxy-2-(3-(2-((3aR,6aR)-1-(4-(2-(((R)-2-hydroxy-2-(8-hydroxy-2-oxo-1,2-dihydroquinolin-5-yl)ethyl)amino)ethyl)benzoyl)hexahydropyrrolo[3,4-b]pyrrol-5(1H)-yl)-2-oxoethoxy)phenyl)-2-phenylacetate] are 0.3 to 3 nM and 0.3 to 3 nM.
With `Cc1ccccc1C(O)(C(=O)OCC1CCN(Cc2ccccc2)CC1)c1cccc(OCCCCCNC[C@H](O)c2ccc(O)c3[nH]c(=O)ccc23)c1` (stereo partly drawn) [Compound 7, (1-benzylpiperidin-4-yl)methyl 2-hydroxy-2-(3-((5-(((R)-2-hydroxy-2-(8-hydroxy-2-oxo-1,2-dihydroquinolin-5-yl)ethyl)amino)pentyl)oxy)phenyl)-2-(o-tolyl)acetate], the values for the IC50 on Human M3 receptor and at Human β2 adrenoceptor were above 3 nM and 0.3 to 3 nM, respectively.
The corresponding values for `COc1c(CNC[C@H](O)c2ccc(O)c3[nH]c(=O)ccc23)ccc(C(=O)N[C@H]2C[C@H](NC(=O)COc3cccc([C@](O)(C(=O)OCC4CCN(Cc5ccccc5)CC4)c4ccccc4)c3)C2)c1F` [Compound 139, (1-benzylpiperidin-4-yl)methyl (S)-2-(3-(2-(((1R,3S)-3-(2-fluoro-4-((((R)-2-hydroxy-2-(8-hydroxy-2-oxo-1,2-dihydroquinolin-5-yl)ethyl)amino)methyl)-3-methoxybenzamido)cyclobutyl)amino)-2-oxoethoxy)phenyl)-2-hydroxy-2-phenylacetate] are 0.3 to 3 nM and below 0.3 nM.
Taken in the same sequence, the figures for `O=C(OCC1CCN(Cc2ccccc2)CC1)C(O)(c1cccc(OCCCCCNC[C@H](O)c2ccc(O)c3[nH]c(=O)ccc23)c1)c1ccccc1Cl` (stereo partly drawn) [Compound 6, (1-benzylpiperidin-4-yl)methyl 2-(2-chlorophenyl)-2-hydroxy-2-(3-((5-(((R)-2-hydroxy-2-(8-hydroxy-2-oxo-1,2-dihydroquinolin-5-yl)ethyl)amino)pentyl)oxy)phenyl)acetate] were above 3 nM and below 0.3 nM.
Consider `O=C(N[C@H]1CCN(C(=O)COc2cccc([C@](O)(C(=O)OCC3CCN(Cc4ccccc4)CC3)c3ccccc3)c2)C1)c1ccc(CCNC[C@H](O)c2ccc(O)c3[nH]c(=O)ccc23)cc1` [Compound 109, (1-benzylpiperidin-4-yl)methyl (S)-2-hydroxy-2-(3-(2-((S)-3-(4-(2-(((R)-2-hydroxy-2-(8-hydroxy-2-oxo-1,2-dihydroquinolin-5-yl)ethyl)amino)ethyl)benzamido)pyrrolidin-1-yl)-2-oxoethoxy)phenyl)-2-phenylacetate], for which the IC50 on Human M3 receptor and at Human β2 adrenoceptor was 0.3 to 3 nM each time.
